The structures appear in SMILES notation.

One may read the IC50 as the point on the concentration scale where inhibition reaches its midpoint. Low readings indicate higher potency, high ones lower potency.

The assay deals with T1, E. coli thymidylate kinase (TMPK) (Escherichia coli, UniProt P0A720).
T1 sequence (P0A720 1-213): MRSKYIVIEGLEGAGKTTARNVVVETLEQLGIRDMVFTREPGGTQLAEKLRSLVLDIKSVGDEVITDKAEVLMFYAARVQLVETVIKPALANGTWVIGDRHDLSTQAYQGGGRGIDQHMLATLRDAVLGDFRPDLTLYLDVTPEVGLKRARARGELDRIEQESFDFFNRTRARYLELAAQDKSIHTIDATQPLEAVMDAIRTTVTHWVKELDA
Put plainly: ATPlite luminescence assay, direction of ATP synthesis. The format is biochemical. For orientation: In ATP-based viability assays light output follows the ATP content of the culture.
As to `COc1cc(C=C2SC(=S)NC2=O)ccc1OC(C)C` [compound 1], half-maximal inhibition (IC50) was put at 390 nM. Regarding `COc1ccc(C=C2SC(=S)NC2=O)cc1O` [compound 2], the midpoint of inhibition, the IC50, lay at 2500 nM.

In turn, `CCOc1ccc(C=C2SC(S)=NC2=O)cc1OC` [compound 9] registered an IC50 of 410 nM.

In turn, `COc1cc(C=C2SC(=S)NC2=O)ccc1OC(C)=O` [compound 11] had an IC50 of 480 nM. Molecule `COc1cc(C=C2SC(=S)NC2=O)ccc1O` [compound 12] had an IC50 of 500 nM.

`C=CCOc1cccc(C=C2SC(=S)NC2=O)c1` [compound 13] registered an IC50 of 1000 nM. Under `COc1cc(C=C2SC(=S)NC2=O)cc(OC)c1O` [compound 27] stands 250 nM; under `CCOc1cc(C=C2SC(=S)NC2=O)ccc1OC(C)=O` [compound 28], 470 nM. In turn, `CCOC(=O)COc1ccc(C=C2SC(=S)NC2=O)cc1OC` [compound 31] yielded an IC50 of 680 nM.

The values above are taken from paper doi:10.1101/2021.02.22.432404v1 (biorxiv, 2021).
